The source of these data is patent US20160361311A1, “LIGANDS THAT TARGET HEPATITIS C VIRUS E2 PROTEIN” (AMERICAN UNIVERSITY OF CAIRO, priority 2014, published 2016).

The assay concerns the target T1, recombinant E2 protein (Hepatitis C virus genotype 1b, UniProt Q9WMX2).
T1 construct: encoding amino acids 384-656 of the Con1 envelope protein 2 ectodomain (eE2); made in house; host or cells: HEK293T cells (lentiviral, secreted)
Nature of the assay: Surface plasmon resonance (Biacore T100) binding to recombinant E2 immobilized on CM5 chip. An excerpt:
A construct containing the sequence encoding amino acids 384-656 of the Con1 envelope protein 2 ectodomain (eE2), a genoptype 1 E2 sequence, was cloned into a lentiviral expression vector with a carboxy-terminal Protein A tag separated by a PreScission Protease cleavage consensus sequence. eE2-ProtA was stably expressed in HEK293T cells using lentiviral infection. The protein was secreted into the media and supernatants were purified using IgG Sepharose (GE Healthcare, Piscataway, N.J.). eE2-ProtA was eluted with 100 mM sodium citrate and 20 mM KCl at pH 3 directly into tubes containing 1M Tris pH 9 for immediate neutralization. PreScission Protease was added to the eluted sample at a ratio of 1:50 (enzyme:eE2), and the digest was then dialyzed into 20 mM HEPES pH 7.5, 250 mM NaCl, 5% glycerol. eE2 was separated from the cleaved tag and the PreScission Protease by ion exchange chromatography.
The set of 34 of the ligands predicted by AutoDock to bind to E2 were tested experimentally to determine if they bind to recombinant E2 protein immobilized on a chip using surface Plasmon resonance. The SPR analyses were performed using a Biacore T100 workstation (GE Healthcare, NJ, USA) and Prot-A-tagged HCV E2 protein. 1 μM ProtA-HCV E2 was diluted into 10 mM sodium acetate buffer pH 5 and immobilized for 15 min at a flow speed of 5 μl/min onto a CM5 sensor chip using amine coupling (EDC-NHS). Approximately 10,000 response units (RU) of protein were immobilized on the chip. His-CD81-LEL (Bioclone-CA/USA) binding to HCV E2 was tested prior to injecting the ligands to confirm the E2 protein was functional and would bind CD81-LEL. In a typical experiment with CD81, […] of his-CD81 in 114 μl PBS was injected into channel 2 and 106.4 RUs of CD81 bound to the E2 on the chip. This was followed by testing the binding of the 34 virtual screening hits where the ligands were prepared as 200 μM solutions in PBS and they were introduced to the protein using a pre-programmed 3 min association and 1 min dissociation interval. The response was measured at two time points during dissociation, 10 and 50 seconds, to obtain information on the rate of ligand dissociation from E2. Twenty-three of the ligands predicted by AutoDock to bind to E2 were observed by SPR to bind to the recombinant protein (Table 2). The measured responses for the ligands that bound varied from 54 to 276 RUs. Data was also obtained on the rate of ligand dissociation by measuring the amount of ligand remaining bound at two time points, dissociation 1 (10 seconds) and dissociation 2 (50 seconds), during the rinsing of the chip with buffer (FIG. 8). The majority of the ligands dissociated quickly, as one might expect for small molecules that bind to the surface of a protein.
Background: In SPR one partner is held on a chip, and binding of the other changes the refractive index at the surface.

T1 sequence (Q9WMX2 384-656): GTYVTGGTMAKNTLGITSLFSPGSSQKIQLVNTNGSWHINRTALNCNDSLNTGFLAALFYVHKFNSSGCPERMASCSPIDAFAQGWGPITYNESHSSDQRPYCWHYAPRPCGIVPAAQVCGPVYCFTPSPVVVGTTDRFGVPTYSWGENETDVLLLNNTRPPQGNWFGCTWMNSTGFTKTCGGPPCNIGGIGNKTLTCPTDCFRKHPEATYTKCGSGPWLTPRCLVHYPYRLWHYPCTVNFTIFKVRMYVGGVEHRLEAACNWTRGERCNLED

Regarding `CSc1ccc2c(c1)C(N1CCN(C)CC1)Cc1ccccc1S2` (stereo not drawn) [Ligand 281816], the “Binding (RU)” value (200 μM ligand in PBS, 3 min association) was 64.5 RU. In addition, for the setting “response remaining 10 sec after rinsing with buffer”, the “Dissociation 1 (RU)” value turned out to be 3.7 RU. Besides, the “Dissociation 2 (RU)” value (response remaining 50 sec after rinsing with buffer) is reported as 0.9 RU.
